Experimental findings from US11026954B2, “3-beta-hydroxy-5-alpha-pregnan-20-one for use in medical treatment” (ASARINA PHARMA AB, priority 2017, dated 2021) are described below.

Test [1] addresses T1, human alpha1,beta2,gamma2 GABAA receptor (Homo sapiens, UniProt P14867+P47870).
T1 construct: expressed in transfected cells
Put plainly: Patch-clamp (Dynaflow) on HEK-293 cells expressing GABAA receptor alpha1,beta2,gamma2. Type of test: cell-based. The conditions noted are these: for effect by itself (Baseline shift): absence of GABA. The text has this:
(§1) Assay for Testing GABAA Receptor Effects of 3Beta-Hydroxy-5Alpha-Pregnan-20-One on Human Alpha1,Beta,Gamma and Alpha4,Beta,Delta GABAA Receptor Subtype.
(§2) 2) in absence and in presence of the positive GABAA receptor modulating steroids Tetrahydrodeoxycorticosterone (THDOC) and 3alpha-hydroxy-5alpha-androstan-17-ol (3alpha-OH-adiol) by the Dynaflow™ system on HEK-293 cells. In these tests the protocol was optimized to be similar to the physiological conditions in the synaptic cleft.
(§3) HEK-293 cells, permanently transfected with the human alpha1,beta,gamma and alpha4,beta,delta GABAA receptor subtypes, were seeded at a density of 3×10^4/25 cm^2 in cellbind culture flask. The transfected cells were used for patch-clamp experiments 3 days after seeding. When using the cells for patch-clamp experiments the cells were washed twice with oxygen-bubbled extracellular (EC) solution (see below). About 5 mL EC was then added and the cells were kept in the incubator for about 15 minutes. After 15 minutes the cells came loose from the bottom of the flask and were separated by carefully sucking couple of times with a Pasteur pipette.
(§4) Dynaflow™ system with Resolve chip was used for patch-clamp experiments: The electrophysiological recordings from HEK-293 cells were performed under voltage-clamp conditions using patch-clamp technique and the Dynaflow™ system (Dynaflow Pro II Platform Zeiss Axiovert 25; Cellectricon AB, Sweden) with Resolve chips as application system.
(§5) Patch pipettes were pulled from borosilicate glass and polished to a resistance 2-5 MΩ when filled with suitable intracellular solution (IC) (pH was adjusted to 7.2) and immersed in bath solution (extracellular, EC) (pH is adjusted to 7.4). The recordings were made using an Axopatch 200B amplifier, a Digidata 1322A (Axon instruments, Foster city, USA). Data were acquired using the pCLAMP software sampled at 10 kHz, filtered at 2-10 kHz and analyzed with Clampfit (versions 9.0, both from Axon instruments, Foster city, USA). No higher series resistance than 20 MΩ between pipette and cell membrane was accepted. No series resistance compensation was used. The stability of series resistance was monitored repeatedly from the time course of capacitative transients during the experiments. The measured liquid-junction potential between EC and IC was subtracted in all data presented. All experiments were performed at room temperature (21-23° C.).
(§6) All steroids were dissolved to the concentration of 6 mM in DMSO. […] End solutions were the solutions added into the wells of the chip.
(§7) After compensating for the liquid junction potential a steady holding potential of −17 mV was used in all experiments. […] By using the holding potential of −17 mV and the intracellular solution with low chloride ion concentration the chloride ions flux into the cell when the receptors were activated.
(§8) The Dynaflow system allowed application of solutions for as short as 40 ms up to minutes in time.
(§9) In the experiments, THDOC and 3alpha-OH-adiol were used as the positive GABAA receptor modulating steroids.
(§10) Different incubation times were studied to achieve the optimal time for attain stable results and minimize the washout time.
(§11) Cell lines permanently expressing a functional human GABAA receptor was made in following steps. The GABAA receptor subunits alpha1, beta2 and gamma2L or alpha4, beta3 and delta including introduced Kozac sequences just before the start codons, were subcloned into mammalian expression vectors containing Geneticin, Hygromycin B, and Zeocin resistance, respectively.
Background: In patch-clamp work, channel activity is measured electrically.

The target in test [2] is T2, human alpha4,beta3,delta GABAA receptor (Homo sapiens, UniProt P28472+P48169).
T2 construct: expressed in transfected cells
Description: Patch-clamp (Dynaflow) on HEK-293 cells expressing GABAA receptor alpha4,beta3,delta. Type of test: cell-based.
Excerpt: as §1, §2, §3, §4, §5, §6, §7, §8, §9, §10, §11

[3] abbreviates: 1 μM 3beta-hydroxy-5alpha-pregnan-20-one.

T2 sequence (P48169 36-554): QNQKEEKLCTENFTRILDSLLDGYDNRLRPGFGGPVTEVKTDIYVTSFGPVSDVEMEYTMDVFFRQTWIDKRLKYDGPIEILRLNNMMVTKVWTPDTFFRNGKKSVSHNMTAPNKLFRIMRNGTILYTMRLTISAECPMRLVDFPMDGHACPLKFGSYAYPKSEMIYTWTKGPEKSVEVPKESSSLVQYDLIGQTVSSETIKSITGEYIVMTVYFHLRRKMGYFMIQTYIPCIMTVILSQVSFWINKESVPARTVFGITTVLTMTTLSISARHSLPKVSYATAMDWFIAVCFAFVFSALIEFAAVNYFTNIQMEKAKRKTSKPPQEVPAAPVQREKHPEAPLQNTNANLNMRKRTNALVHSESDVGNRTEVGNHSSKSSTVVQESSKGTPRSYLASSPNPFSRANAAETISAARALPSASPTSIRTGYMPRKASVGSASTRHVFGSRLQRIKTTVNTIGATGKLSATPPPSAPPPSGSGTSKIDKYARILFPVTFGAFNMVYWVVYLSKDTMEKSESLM
T2 sequence (P28472 26-473): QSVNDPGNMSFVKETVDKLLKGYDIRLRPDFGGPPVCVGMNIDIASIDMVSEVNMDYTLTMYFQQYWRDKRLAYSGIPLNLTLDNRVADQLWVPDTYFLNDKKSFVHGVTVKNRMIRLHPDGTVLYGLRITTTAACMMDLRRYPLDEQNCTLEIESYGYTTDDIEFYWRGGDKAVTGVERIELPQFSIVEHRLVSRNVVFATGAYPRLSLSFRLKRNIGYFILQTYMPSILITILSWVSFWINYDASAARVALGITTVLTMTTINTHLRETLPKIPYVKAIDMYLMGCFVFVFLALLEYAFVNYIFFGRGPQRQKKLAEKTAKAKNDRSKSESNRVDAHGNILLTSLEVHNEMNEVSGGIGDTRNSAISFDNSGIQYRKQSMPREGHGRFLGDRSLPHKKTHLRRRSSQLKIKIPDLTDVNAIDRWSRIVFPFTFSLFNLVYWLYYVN
T2 sequence (O14764 17-452 partner limits assumed): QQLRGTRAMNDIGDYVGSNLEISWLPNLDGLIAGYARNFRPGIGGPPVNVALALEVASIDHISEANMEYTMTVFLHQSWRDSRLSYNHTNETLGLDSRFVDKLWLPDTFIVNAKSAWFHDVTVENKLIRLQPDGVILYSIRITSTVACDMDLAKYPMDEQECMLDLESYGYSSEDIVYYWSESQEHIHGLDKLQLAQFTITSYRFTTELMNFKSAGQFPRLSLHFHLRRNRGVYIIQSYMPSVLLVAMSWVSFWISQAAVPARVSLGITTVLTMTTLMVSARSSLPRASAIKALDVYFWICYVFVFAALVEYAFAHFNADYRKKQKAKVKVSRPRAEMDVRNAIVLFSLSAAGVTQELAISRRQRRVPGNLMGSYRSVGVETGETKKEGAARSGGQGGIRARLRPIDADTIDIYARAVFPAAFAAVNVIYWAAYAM
T1 sequence (P14867 28-456): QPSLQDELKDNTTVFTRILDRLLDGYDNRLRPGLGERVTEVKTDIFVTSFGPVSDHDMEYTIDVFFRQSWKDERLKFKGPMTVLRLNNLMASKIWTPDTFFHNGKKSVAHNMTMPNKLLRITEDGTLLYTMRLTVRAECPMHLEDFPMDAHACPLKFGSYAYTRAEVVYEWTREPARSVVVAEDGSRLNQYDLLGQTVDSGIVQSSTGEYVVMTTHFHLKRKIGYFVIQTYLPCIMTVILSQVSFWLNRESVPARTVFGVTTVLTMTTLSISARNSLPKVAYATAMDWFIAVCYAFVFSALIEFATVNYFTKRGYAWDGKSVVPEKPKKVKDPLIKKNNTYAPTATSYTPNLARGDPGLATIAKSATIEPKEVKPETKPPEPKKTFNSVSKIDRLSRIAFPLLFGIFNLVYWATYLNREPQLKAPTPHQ
T1 sequence (P47870 25-512 limits assumed): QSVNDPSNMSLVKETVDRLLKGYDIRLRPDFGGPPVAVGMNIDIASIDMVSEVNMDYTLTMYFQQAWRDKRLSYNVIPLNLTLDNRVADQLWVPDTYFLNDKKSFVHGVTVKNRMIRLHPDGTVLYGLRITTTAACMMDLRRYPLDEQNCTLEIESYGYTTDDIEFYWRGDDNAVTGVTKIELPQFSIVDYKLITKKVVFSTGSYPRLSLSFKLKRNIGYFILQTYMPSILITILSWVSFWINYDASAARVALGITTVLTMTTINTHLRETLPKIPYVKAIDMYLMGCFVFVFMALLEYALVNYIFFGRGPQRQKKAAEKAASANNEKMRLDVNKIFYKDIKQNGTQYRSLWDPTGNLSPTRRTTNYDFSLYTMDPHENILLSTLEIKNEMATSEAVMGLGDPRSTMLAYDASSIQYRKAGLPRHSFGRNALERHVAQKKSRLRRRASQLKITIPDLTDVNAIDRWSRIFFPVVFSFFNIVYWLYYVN
T1 sequence (P18507 40-475 partner): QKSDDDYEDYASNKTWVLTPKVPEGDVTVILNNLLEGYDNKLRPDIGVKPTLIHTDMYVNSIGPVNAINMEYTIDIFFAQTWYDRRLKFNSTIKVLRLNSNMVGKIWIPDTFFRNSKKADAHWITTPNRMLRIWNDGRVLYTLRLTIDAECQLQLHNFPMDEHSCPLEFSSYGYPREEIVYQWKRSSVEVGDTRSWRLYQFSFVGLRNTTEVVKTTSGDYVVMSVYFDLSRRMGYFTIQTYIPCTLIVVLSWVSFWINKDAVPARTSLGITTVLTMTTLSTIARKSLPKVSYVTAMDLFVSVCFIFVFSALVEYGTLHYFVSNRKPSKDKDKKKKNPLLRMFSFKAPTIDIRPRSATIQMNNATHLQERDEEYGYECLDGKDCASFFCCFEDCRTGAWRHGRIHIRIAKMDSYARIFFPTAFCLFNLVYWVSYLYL

Consider `CC(=O)[C@H]1CC[C@H]2[C@@H]3CC[C@H]4C[C@@H](O)CC[C@]4(C)[C@H]3CC[C@]12C` [3beta-hydroxy-5alpha-pregnan-20-one], for which the “Antagonism of THDOC enhanced GABA effect (max, concentration-dependent experiment)” value in test [1] (1 μM 3beta-hydroxy-5alpha-pregnan-20-one + 30 μM GABA + 200 nM THDOC, n=10) is on record as −21±4.6%. The “Effect on 8 μM Androstandiol + 30 μM GABA” value in test [1] (1 μM 3beta-hydroxy-5alpha-pregnan-20-one, phasic effect) was −30 ± 1.7%. Further, in test [1] (1 μM 3beta-hydroxy-5alpha-pregnan-20-one, tonic effect, without GABA), the “Effect on 8 μM Androstandiol, baseline shift” value was −33 ± 7.6%. In test [1] (0.1-1 μM 3beta-hydroxy-5alpha-pregnan-20-one + 30 μM GABA + 200 nM THDOC), the “Imax, antagonism of THDOC effect” value is reported as −21%. For the same molecule, the “Antagonism of THDOC enhanced GABA effect (single dose)” value in test [1] (single dose 1 μM + 30 μM GABA + 200 nM THDOC, n=6) is −22.3±5.3%. In test [2] (setting [3]), the “Effect on 0.6 μM Androstandiol + 3 μM GABA” value was −18 ± 2.0% and the “Effect on 0.8 μM Androstandiol + 3 μM GABA” value is listed as −22 ± 2.6%. Further, in test [2] (1 μM 3beta-hydroxy-5alpha-pregnan-20-one alone, N=11, NS vs EC solution), the “Effect by itself (current response)” value was −0.4±0.3 pA. In addition, the “Effect on 3 μM GABA response” value in test [2] (1 μM 3beta-hydroxy-5alpha-pregnan-20-one, N=11, NS) is −6.7 ± 3.3%. The “Effect on GABA alone (in words)” value in test [2] (1 μM 3beta-hydroxy-5alpha-pregnan-20-one, data not shown) is “without any significant effect”. In addition, the “Effect on 0.1 μM THDOC + 3 μM GABA” value in test [2] (1 μM 3beta-hydroxy-5alpha-pregnan-20-one, steady state) is on record as −26 ± 2.4%. Further, in test [2] (1 μM 3beta-hydroxy-5alpha-pregnan-20-one, without GABA), the “Effect on 0.1 μM THDOC alone baseline” value is recorded as −43 ± 3.5%.
As to `C[C@]12CC[C@@H](O)C[C@@H]1CC[C@@H]1[C@@H]2CC[C@]2(C)C(O)CC[C@@H]12` (stereo partly drawn) [Androstandiol, 3alpha-hydroxy-5alpha-androstan-17-ol], the “effect by itself (Baseline shift)” value in test [1] (3 μM androstandiol) is reported as “+8 ± 3.6 pA”; in test [1] (8 μM androstandiol) it was “+13 ± 2.3 pA”; in test [1] (10 μM androstandiol), “+11 ± 1.5 pA”; in test [1] (30 μM androstandiol) it was “+24 ± 6.8 pA”; in test [1] (100 μM androstandiol), “+43 ± 5.7 pA”. Also, in test [1] (enhancing the effect of GABA, 30 μM GABA), the “Potency relative to THDOC (less potent)” value is 48 times. Besides, the “Baseline shift (current response in absence of GABA)” value is “+8 ± 3.6 pA” in test [2] (3 μM androstandiol) and “+13 ± 4.8 pA” in test [2] (10 μM androstandiol). In addition, the “Potency at alpha4,beta3,delta relative to alpha1,beta2,gamma2 (higher)” value in test [2] (enhancement of GABA-mediated current) is on record as 10 times.
By EC50 is commonly meant the concentration that produces a half-maximal response. As to `C[C@]12CC[C@@H](O)C[C@H]1CC[C@@H]1[C@@H]2CC[C@]2(C)[C@@H](C(=O)CO)CC[C@@H]12` [THDOC, Tetrahydrodeoxycorticosterone], in test [1] (0.03-1 μM THDOC + 30 μM GABA), the “Emax, enhancement of GABA mediated current” value is “+115%”. Further, the EC50 in test [1] (read-out: EC50, enhancement of GABA mediated current, 0.03-1 μM THDOC + 30 μM GABA) was determined as 70 nM; in test [2] (read-out: EC50, enhancement of GABA mediated current response, THDOC + 3 μM GABA), 47 nM. The “Baseline shift (current response in absence of GABA)” value in test [2] (0.03 μM THDOC) is “+5 ± 3.3 pA”; in test [2] (0.1 μM THDOC), “+15 ± 9.5 pA”; in test [2] (0.3 μM THDOC), “+12 ± 7.9 pA”; in test [2] (1 μM THDOC), “+69 ± 35 pA”. Also, in test [2] (THDOC + 3 μM GABA), the “Emax, enhancement of GABA mediated current response” value is reported as 297%.
